Results from ChEMBL document CHEMBL5236548, “Marine Natural Products: A Potential Source of Anti-hepatocellular Carcinoma Drugs” (J Med Chem, 2021).

Tests used:
PLC-PRF-5 = experiment: Cytotoxicity against human PLC-PRF-5 cells by SRB assay; format: functional, cell-based
SMMC-7721 [1] = experiment: Cytotoxicity against human SMMC-7721 cells by SRB assay; format: functional, cell-based
HepG2 [2] = experiment: Cytotoxicity against human HepG2 cells by SRB assay; format: functional, cell-based
Bel-7402 [3] = experiment: Antitumor activity against human Bel-7402 cells xenografted in mouse assessed as reduction in tumor volume at 7 mg/kg, ip administered daily for 21 days by caliper method relative to control; format: functional; set-up: scale not given: the % may be the effect or the level left; conditions: time 21 day
Bel-7402 [4] = experiment: Antitumor activity against human Bel-7402 cells xenografted in mouse assessed as reduction in tumor volume at 14 mg/kg, ip administered daily for 21 days by caliper method relative to control; format: functional; set-up: scale not given: the % may be the effect or the level left; conditions: time 21 day
[5] = Half life in Kunming mouse at 15 to 30 mg/kg measured upto 240 mins; format: ADME, organism-based; conditions: in vivo, dose 15-30 mg/kg
SMMC-7721 [6] = experiment: Cytotoxicity against human SMMC-7721 cells incubated for 72 hrs by SRB assay; format: functional, cell-based; conditions: SMMC-7721, 72 h
Bel-7402 [7] = experiment: Antitumor activity against human Bel-7402 cells xenografted in mouse assessed as reduction in tumor volume at 28 mg/kg, ip administered daily for 21 days by caliper method relative to control; format: functional; set-up: scale not given: the % may be the effect or the level left; conditions: time 21 day
Bel-7402 [8] = experiment: Cytotoxicity against human Bel-7402 cells incubated for 72 hrs by SRB assay; format: functional, cell-based; conditions: Bel-7402, 72 h
H22 [9] = experiment: Antitumor activity against […] cells xenografted in mouse assessed as reduction in tumor volume at 5 mg/kg, ip measured after 21 days by caliper method relative to control; format: functional; set-up: scale not given: the % may be the effect or the level left; conditions: time 21 day
H22 [10] = experiment: Antitumor activity against […] cells xenografted in mouse assessed as reduction in tumor volume at 45 mg/kg, ip measured after 21 days by caliper method relative to control; format: functional; set-up: scale not given: the % may be the effect or the level left; conditions: time 21 day
H22 [11] = experiment: Antitumor activity against […] cells xenografted in mouse assessed as reduction in tumor volume at 15 mg/kg, ip measured after 21 days by caliper method relative to control; format: functional; set-up: scale not given: the % may be the effect or the level left; conditions: time 21 day
SMMC-7721 [12] = experiment: Antiproliferative activity against human SMMC-7721 cells measured after 48 hrs; format: functional, cell-based; conditions: SMMC-7721, 48 h
SMMC-7721 [13] = experiment: Antitumor activity against human SMMC-7721 cells xenografted in mouse assessed as reduction in tumor volume at 20 mg/kg administered once every two days for 21 days relative to control; format: functional; set-up: scale not given: the % may be the effect or the level left; conditions: time 21 day
HepG2 [14] = experiment: Antiproliferative activity against doxorubicin resistant human HepG2 cells for 24 hrs in presence of c-phycocyanin by MTT assay; conditions: HepG2, 24 h
HepG2 [15] = experiment: Antiproliferative activity against human HepG2 cells incubated for 72 hrs by MTT assay; format: functional, cell-based; conditions: HepG2, 72 h
HepG2 [16] = experiment: Anticancer activity against human HepG2 cells by SRB assay; format: functional, cell-based
HepG2 [17] = experiment: Anticancer activity against human HepG2 cells by MTT assay; format: functional, cell-based
Bel-7402 [18] = experiment: Cytotoxicity against human 7402 hepatoma cells incubated for 24 hrs by MTT assay; format: functional, cell-based; conditions: Bel-7402, 24 h
MDA-MB-435 = experiment: Cytotoxicity against human MDA-MB-435 cells incubated for 24 hrs by MTT assay; format: functional, cell-based; conditions: MDA-MB-435, 24 h
HepG2 [19] = experiment: Cytotoxicity against human HepG2 cells incubated for 48 hrs by MTT assay; format: functional, cell-based; conditions: HepG2, 48 h
HepG2 [20] = experiment: Antiproliferative activity against human HepG2 cells assessed as cell growth inhibition by SRB method; format: functional
SK-HEP1 = experiment: Antiproliferative activity against human SK-HEP1 cells assessed as cell growth inhibition by SRB method; format: functional
HepG2 [21] = experiment: Antimigratory activity against human HepG2 cells assessed as reduction in cell migration by cell migration assay; format: functional, cell-based
HepG2 [22] = experiment: Cytotoxicity against human HepG2 cells measured after 3 days by MTT assay; format: functional, cell-based; conditions: HepG2, 72 h
[23] = Cytotoxicity against human HepG3 cells measured after 3 days by MTT assay; format: functional, cell-based; conditions: HepG3, 72 h
Bel-7402 [24] = experiment: Antitumor activity against human Bel-7402 cells xenografted in mouse assessed as reduction in tumor volume at 2 mg/kg, ip administered daily for 21 days by caliper method relative to control; format: functional; set-up: scale not given: the % may be the effect or the level left; conditions: time 21 day
H22 [25] = experiment: Antitumor activity against […] cells xenografted in mouse assessed as reduction in tumor volume at 2 mg/kg, ip administered daily for 21 days by caliper method relative to control; format: functional; set-up: scale not given: the % may be the effect or the level left; conditions: time 21 day

C[C@@H]1O[C@@H](O[C@H]2CC[C@H](O[C@@]3(C)CC(=O)[C@]4(O)C5=C(C=C[C@]4(O)C3)C(=O)c3c(ccc([C@H]4C[C@H]6O[C@H]7CC(=O)[C@H](C)O[C@@H]7O[C@@H]6[C@@H](C)O4)c3O)C5=O)O[C@H]2C)C=CC1=O
IC50 (PLC-PRF-5): 244 nM | IC50 (SMMC-7721 [1]): 33 nM | IC50 (HepG2 [2]): 135 nM

Cc1cc(O)cc(O)c1OC1C(=O)Oc2c(C)cc(O)c3c2C1c1cc(O)cc(O)c1C3=O (configuration not stated)
Activity (Bel-7402 [3]): 48.8% | Activity (Bel-7402 [4]): 51.2% | half-life [5]: 0.667 h | IC50 (SMMC-7721 [6]): < 4000 nM | Activity (Bel-7402 [7]): 59.9% | IC50 (Bel-7402 [8]): < 6000 nM | Activity (H22 [9]): 55% | Activity (H22 [10]): 66% | Activity (H22 [11]): 62%

C[C@@]12C[C@@H](O)C[C@]3(C)C4=CC(=O)OCC4=C[C@@H](OC1=O)C23 (some centres not stated)
IC50 (SMMC-7721 [12]): 19000 nM | Activity (SMMC-7721 [13]): 86.4%

COc1cccc2c1C(=O)c1c(O)c3c(c(O)c1C2=O)C[C@@](O)(C(=O)CO)C[C@@H]3O[C@H]1C[C@H](N)[C@H](O)[C@H](C)O1 [DOXORUBICIN]
IC50 (HepG2 [14]): 10000 nM | IC50 (PLC-PRF-5): 1030 nM | IC50 (SMMC-7721 [1]): 706 nM | IC50 (HepG2 [2]): 919 nM

CC(=O)O[C@H]1CC[C@]2(C)C3CC[C@@]4(C)C(CCC4[C@H](C)CCCC(C)C)C3[C@@H](c3nc4ccccc4[nH]3)[C@]2(O)C1 (some centres not stated)
IC50 (HepG2 [15]): 4200 nM

CC1=CC[C@@H]2[C@@H](CC[C@@]2(C)O)C(C)(C)[C@H]1CC[C@@H]1[C@@]2(C)CC[C@@H](O)C(C)(C)O[C@@H]2CC[C@]1(C)O
IC50 (HepG2 [16]): 17200 nM

CCCCCC1=C/C(=C\c2[nH]c(-c3ccc[nH]3)cc2OC)N=C1C
IC50 (HepG2 [17]): 40 nM

Cc1cc2nc([C@@H]3C4C5CCC([C@H](C)CCCC(C)C)[C@@]5(C)CCC4[C@@]4(C)CC[C@H](O)C[C@@]34O)[nH]c2cc1C (some centres not stated)
IC50 (HepG2 [15]): 4500 nM

O=c1[nH]cc(F)c(=O)[nH]1 [FLUOROURACIL]
IC50 (SMMC-7721 [12]): 20000 nM

COC(=O)N[C@H]1[C@@H](C)O[C@@H](O[C@H]2C/C=C(\C)[C@@H]3C=C[C@@H]4[C@@H](O[C@H]5C[C@@H](O[C@H]6C[C@@H](O)[C@@H](O[C@@H]7C[C@@H](O)[C@@H](OC)[C@H](C)O7)[C@H](C)O6)[C@@H](O)[C@H](C)O5)[C@H](C)C[C@H](C)[C@H]4[C@]3(C)/C(O)=C3\C(=O)O[C@]4(C[C@@H](C)C(CO)=C[C@H]4/C=C/2C)C3=O)C[C@]1(C)N
IC50 (Bel-7402 [18]): 625000 nM | IC50 (MDA-MB-435): 6480 nM

C[C@]1(O)Cc2c(O)c3c(c(O)c2C[C@H]1O)C(=O)C1=C(SCCS1)C3=O
IC50 (HepG2 [19]): 1980 nM

CO[C@@]12[C@H](COC(N)=O)C3=C(C(=O)C(C)=C(N)C3=O)N1C[C@@H]1N[C@@H]12 [MITOMYCIN]
IC50 (HepG2 [17]): 130 nM

C/C=C\C[C@@H](C/C=C\NC(=O)[C@@H](NC(=O)\C=C/C=C\C(C)=C\[C@H](C)[C@@H]1CC=C(OC)C(=O)O1)C(C)(C)C)OC(N)=O [PLOCABULIN]
GI50 (HepG2 [20]): 2.76 nM | GI50 (SK-HEP1): 0.179 nM

CC[C@H]1C=CCC[C@@]2(C[C@@H]3CC[C@]4(O)[C@H](C(=O)OCCCCCCCCCCCCCCCC(=O)N(CCCN)C[C@@H](O)CCN)[C@]5(CCC[C@@H](C)O5)NC(=N2)N34)O1
IC50 (HepG2 [21]): 180 nM

C=C(CC[C@@H](C)[C@H]1[C@@H](O)C[C@H]2[C@@H]3CC=C4C[C@@H](O[C@@H]5O[C@@H](C)[C@@H](OC(C)=O)[C@@H](O)[C@@H]5O)CC[C@]4(C)[C@H]3[C@H](O)C[C@]12C)C(C)C
IC50 (HepG2 [22]): 17600 nM | IC50 [23]: 18900 nM

COc1cccc2c1C(=O)c1c(O)c3c(c(O)c1C2=O)C[C@@](O)(C(=O)CO)C[C@@H]3O[C@H]1C[C@H](N)[C@@H](O)[C@H](C)O1 [EPIRUBICIN]
IC50 (HepG2 [19]): 960 nM

COc1cccc2c1C(=O)c1c(O)c3c(c(O)c1C2=O)C[C@@](O)(C(=O)CO)C[C@@H]3O[C@H]1C[C@H](N)[C@H](O)[C@H](C)O1.Cl [DOXORUBICIN HYDROCHLORIDE]
Activity (Bel-7402 [24]): 73.5% | Activity (H22 [25]): 51.9% | half-life [5]: 23 h

COc1ccc2[nH]c([C@@H]3C4C5CCC([C@H](C)CCCC(C)C)[C@@]5(C)CCC4[C@@]4(C)CC[C@H](O)C[C@@]34O)nc2c1 (some centres not stated)
IC50 (HepG2 [15]): 8400 nM
